Reference: the supplement of paper PMC10307832

Assays:
Assay in all cases: relative viability (nuclei count vs DMSO), 5 days (fraction); higher = more cells survive
LCLC-103H = test system: LCLC-103H
How it was run: (§1)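 Relative viability was taken as the ratio of nuclei in treated wells to nuclei in vehicle wells. Lung cancer cell lines in 1536-well plates received compounds by pin tool one day after seeding, either one drug alone or a fixed anchor-drug dose plus five library-drug doses (not always all listed) in √10 steps. Nuclei were counted on 4× images after 5 days of treatment, and values are medians of duplicate plates.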

NCI-H1944 = test system: NCI-H1944
How it was run: as §1

LU99A = test system: LU99A
How it was run: as §1

H3255 = test system: H3255
How it was run: as §1

SW 1573 = test system: SW 1573
How it was run: as §1

RERF-LC-KJ = test system: RERF-LC-KJ
How it was run: as §1

NCI-H23 = test system: NCI-H23
How it was run: as §1

PC-3 [JPC-3] = test system: PC-3 [JPC-3]
How it was run: as §1

NCI-H1793 = test system: NCI-H1793
How it was run: as §1

A-427 = test system: A-427
How it was run: as §1

NCI-H1563 = test system: NCI-H1563
How it was run: as §1

NCI-H460 = test system: NCI-H460
How it was run: as §1

NCI-H2347 = test system: NCI-H2347
How it was run: as §1

PC-14 = test system: PC-14
How it was run: as §1

LCLC-97TM1 = test system: LCLC-97TM1
How it was run: as §1

COR-L23 = test system: COR-L23
How it was run: as §1

201T = test system: 201T
How it was run: as §1

NCI-H1651 = test system: NCI-H1651
How it was run: as §1

NCI-H650 = test system: NCI-H650
How it was run: as §1

NCI-H727 = test system: NCI-H727
How it was run: as §1

NCI-H838 = test system: NCI-H838
How it was run: as §1

LK-2 = test system: LK-2
How it was run: as §1

C[C@@H]1CN(CC(=O)Nc2ccc3c(c2)Cc2cccc(-c4cc(=O)cc(N5CCOCC5)o4)c2S3)C[C@H](C)O1 + Cc1nc(NC(=O)N2CCC[C@H]2C(N)=O)sc1-c1ccnc(C(C)(C)C(F)(F)F)c1 [Alpelisib] (partner 2 µM)
relative viability (LCLC-103H; first compound 0.04 µM): 1.02
relative viability (LCLC-103H; first compound 0.1265 µM): 0.892
relative viability (LCLC-103H; first compound 0.4 µM): 0.845
relative viability (LCLC-103H; first compound 4 µM): 1.02
relative viability (NCI-H1944; first compound 0.1265 µM): 0.826
relative viability (NCI-H1944; first compound 0.4 µM): 0.86
relative viability (NCI-H1944; first compound 4 µM): 0.814
relative viability (LU99A; first compound 0.04 µM): 0.475
relative viability (LU99A; first compound 0.1265 µM): 0.532
relative viability (LU99A; first compound 0.4 µM): 0.567
relative viability (LU99A; first compound 4 µM): 0.566
relative viability (H3255; first compound 0.04 µM): 0.569
relative viability (H3255; first compound 0.1265 µM): 0.659
relative viability (H3255; first compound 0.4 µM): 0.549
relative viability (H3255; first compound 4 µM): 0.611
relative viability (SW 1573; first compound 0.04 µM): 0.867
relative viability (SW 1573; first compound 0.1265 µM): 0.852
relative viability (SW 1573; first compound 0.4 µM): 0.771
relative viability (SW 1573; first compound 4 µM): 0.753
relative viability (RERF-LC-KJ; first compound 0.04 µM): 0.869
relative viability (RERF-LC-KJ; first compound 0.1265 µM): 0.764
relative viability (RERF-LC-KJ; first compound 0.4 µM): 0.774
relative viability (RERF-LC-KJ; first compound 4 µM): 0.792
relative viability (NCI-H23; first compound 0.04 µM): 0.715
relative viability (NCI-H23; first compound 0.1265 µM): 0.639
relative viability (NCI-H23; first compound 0.4 µM): 0.624
relative viability (NCI-H23; first compound 4 µM): 0.727
relative viability (PC-3 [JPC-3]; first compound 0.04 µM): 1.02
relative viability (PC-3 [JPC-3]; first compound 0.1265 µM): 1
relative viability (PC-3 [JPC-3]; first compound 0.4 µM): 1
relative viability (PC-3 [JPC-3]; first compound 4 µM): 0.952
relative viability (NCI-H1793; first compound 0.04 µM): 0.717
relative viability (NCI-H1793; first compound 0.1265 µM): 0.614
relative viability (NCI-H1793; first compound 0.4 µM): 0.514
relative viability (NCI-H1793; first compound 4 µM): 0.585
relative viability (A-427; first compound 0.04 µM): 1.12
relative viability (A-427; first compound 0.1265 µM): 1.08
relative viability (A-427; first compound 0.4 µM): 1.07
relative viability (A-427; first compound 4 µM): 1.07
relative viability (NCI-H1563; first compound 0.04 µM): 0.942
relative viability (NCI-H1563; first compound 0.1265 µM): 0.918
relative viability (NCI-H1563; first compound 0.4 µM): 0.748
relative viability (NCI-H1563; first compound 4 µM): 0.753
relative viability (NCI-H460; first compound 0.04 µM): 0.517
relative viability (NCI-H460; first compound 0.1265 µM): 0.416
relative viability (NCI-H460; first compound 0.4 µM): 0.355
relative viability (NCI-H460; first compound 4 µM): 0.265
relative viability (NCI-H2347; first compound 0.04 µM): 0.981
relative viability (NCI-H2347; first compound 0.1265 µM): 1.09
relative viability (NCI-H2347; first compound 0.4 µM): 1.08
relative viability (NCI-H2347; first compound 4 µM): 0.979
relative viability (PC-14; first compound 0.04 µM): 0.961
relative viability (PC-14; first compound 0.1265 µM): 0.986
relative viability (PC-14; first compound 0.4 µM): 0.9
relative viability (PC-14; first compound 4 µM): 0.855
relative viability (LCLC-97TM1; first compound 0.1265 µM): 0.225
relative viability (LCLC-97TM1; first compound 0.4 µM): 0.237
relative viability (LCLC-97TM1; first compound 4 µM): 0.238
relative viability (COR-L23; first compound 0.04 µM): 1.02
relative viability (COR-L23; first compound 0.1265 µM): 0.802
relative viability (COR-L23; first compound 0.4 µM): 0.798
relative viability (COR-L23; first compound 4 µM): 0.727
relative viability (201T; first compound 0.04 µM): 1.04
relative viability (201T; first compound 0.1265 µM): 1.02
relative viability (201T; first compound 0.4 µM): 0.943
relative viability (201T; first compound 4 µM): 0.95
relative viability (NCI-H1651; first compound 0.04 µM): 0.953
relative viability (NCI-H1651; first compound 0.1265 µM): 0.923
relative viability (NCI-H1651; first compound 0.4 µM): 0.881
relative viability (NCI-H1651; first compound 4 µM): 1.06
relative viability (NCI-H650; first compound 0.04 µM): 0.949
relative viability (NCI-H650; first compound 0.1265 µM): 1.06
relative viability (NCI-H650; first compound 0.4 µM): 1.15
relative viability (NCI-H650; first compound 4 µM): 0.895
relative viability (NCI-H727; first compound 0.04 µM): 0.685
relative viability (NCI-H727; first compound 0.1265 µM): 0.612
relative viability (NCI-H727; first compound 0.4 µM): 0.502
relative viability (NCI-H727; first compound 4 µM): 0.479
relative viability (NCI-H838; first compound 0.04 µM): 0.971
relative viability (NCI-H838; first compound 0.1265 µM): 0.913
relative viability (NCI-H838; first compound 0.4 µM): 0.906
relative viability (NCI-H838; first compound 4 µM): 0.784
relative viability (LK-2; first compound 0.1265 µM): 1.11
relative viability (LK-2; first compound 0.4 µM): 1.18
relative viability (LK-2; first compound 4 µM): 1.28

CC(C)Oc1cc(Nc2nc(N[C@@H](C)c3ccc(F)cn3)ncc2Cl)n[nH]1 [AZ23] + C[C@]1(O)C[C@@H](c2nc(-c3ccc4ccc(-c5ccccc5)nc4c3)c3c(N)nccn32)C1 [Linsitinib] (partner 1 µM)
relative viability (LCLC-103H; first compound 0.01 µM): 1.07
relative viability (LCLC-103H; first compound 0.03162 µM): 1.03
relative viability (LCLC-103H; first compound 0.3162 µM): 1.15
relative viability (NCI-H1944; first compound 0.01 µM): 1.12
relative viability (NCI-H1944; first compound 0.03162 µM): 1.18
relative viability (NCI-H1944; first compound 0.3162 µM): 1.26
relative viability (LU99A; first compound 0.01 µM): 0.534
relative viability (LU99A; first compound 0.03162 µM): 0.579
relative viability (LU99A; first compound 0.3162 µM): 0.593
relative viability (H3255; first compound 0.01 µM): 1.03
relative viability (H3255; first compound 0.03162 µM): 1.08
relative viability (H3255; first compound 0.3162 µM): 0.985
relative viability (SW 1573; first compound 0.01 µM): 0.786
relative viability (SW 1573; first compound 0.03162 µM): 0.937
relative viability (SW 1573; first compound 0.3162 µM): 0.691
relative viability (RERF-LC-KJ; first compound 0.01 µM): 0.833
relative viability (RERF-LC-KJ; first compound 0.03162 µM): 0.992
relative viability (RERF-LC-KJ; first compound 0.3162 µM): 0.987
relative viability (NCI-H23; first compound 0.03162 µM): 0.697
relative viability (NCI-H23; first compound 0.3162 µM): 0.596
relative viability (PC-3 [JPC-3]; first compound 0.01 µM): 1.03
relative viability (PC-3 [JPC-3]; first compound 0.03162 µM): 1.04
relative viability (PC-3 [JPC-3]; first compound 0.3162 µM): 0.973
relative viability (NCI-H1793; first compound 0.01 µM): 1.04
relative viability (NCI-H1793; first compound 0.03162 µM): 0.983
relative viability (NCI-H1793; first compound 0.3162 µM): 0.952
relative viability (A-427; first compound 0.01 µM): 1.24
relative viability (A-427; first compound 0.03162 µM): 1.11
relative viability (A-427; first compound 0.3162 µM): 1.16
relative viability (NCI-H1563; first compound 0.01 µM): 1.14
relative viability (NCI-H1563; first compound 0.03162 µM): 1.19
relative viability (NCI-H1563; first compound 0.3162 µM): 1.08
relative viability (NCI-H460; first compound 0.01 µM): 0.366
relative viability (NCI-H460; first compound 0.03162 µM): 0.933
relative viability (NCI-H460; first compound 0.3162 µM): 0.851
relative viability (NCI-H2347; first compound 0.01 µM): 1.03
relative viability (NCI-H2347; first compound 0.03162 µM): 0.993
relative viability (NCI-H2347; first compound 0.3162 µM): 0.926
relative viability (PC-14; first compound 0.01 µM): 0.946
relative viability (PC-14; first compound 0.03162 µM): 1.16
relative viability (PC-14; first compound 0.3162 µM): 1.03
relative viability (LCLC-97TM1; first compound 0.01 µM): 0.185
relative viability (LCLC-97TM1; first compound 0.03162 µM): 0.17
relative viability (LCLC-97TM1; first compound 0.3162 µM): 0.168
relative viability (COR-L23; first compound 0.01 µM): 0.948
relative viability (COR-L23; first compound 0.03162 µM): 1.11
relative viability (COR-L23; first compound 0.3162 µM): 0.878
relative viability (201T; first compound 0.01 µM): 1.01
relative viability (201T; first compound 0.03162 µM): 1.11
relative viability (201T; first compound 0.3162 µM): 0.996
relative viability (NCI-H1651; first compound 0.01 µM): 0.691
relative viability (NCI-H1651; first compound 0.03162 µM): 1
relative viability (NCI-H1651; first compound 0.3162 µM): 1.18
relative viability (NCI-H650; first compound 0.01 µM): 0.648
relative viability (NCI-H650; first compound 0.03162 µM): 0.893
relative viability (NCI-H650; first compound 0.3162 µM): 0.857
relative viability (NCI-H727; first compound 0.01 µM): 0.354
relative viability (NCI-H727; first compound 0.03162 µM): 0.281
relative viability (NCI-H727; first compound 0.3162 µM): 0.277
relative viability (NCI-H838; first compound 0.01 µM): 1.02
relative viability (NCI-H838; first compound 0.03162 µM): 1.23
relative viability (NCI-H838; first compound 0.3162 µM): 0.945
relative viability (LK-2; first compound 0.01 µM): 0.325
relative viability (LK-2; first compound 0.03162 µM): 0.538
relative viability (LK-2; first compound 0.3162 µM): 0.5
